Assay [1] has as its target GDP-bound HRAS wild-type protein (Homo sapiens, UniProt P01112). The assay is described as follows: Binding to HRAS by surface plasmon resonance (SPR), Single Cycle Kinetics. To be noted: KD ratio HRAS/KRAS, SPR, GDP-bound wild-type proteins. On the technique in general: In SPR one partner is held on a chip, and binding of the other changes the refractive index at the surface.

Assay [2] has as its target GDP-bound NRAS wild-type protein (Homo sapiens, UniProt P01111). The assay is described as follows: Binding to NRAS by surface plasmon resonance (SPR), Single Cycle Kinetics. To be noted: KD ratio NRAS/KRAS, SPR, GDP-bound wild-type proteins.

The structures appear in SMILES notation.

GDP-bound HRAS wild-type protein, sequence (P01112 whole entry): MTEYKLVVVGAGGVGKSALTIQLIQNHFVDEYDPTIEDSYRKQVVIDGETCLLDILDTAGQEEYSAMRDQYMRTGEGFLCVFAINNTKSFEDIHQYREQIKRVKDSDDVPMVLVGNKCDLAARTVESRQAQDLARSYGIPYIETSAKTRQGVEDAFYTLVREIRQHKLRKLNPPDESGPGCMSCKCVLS
GDP-bound NRAS wild-type protein, sequence (P01111 whole entry): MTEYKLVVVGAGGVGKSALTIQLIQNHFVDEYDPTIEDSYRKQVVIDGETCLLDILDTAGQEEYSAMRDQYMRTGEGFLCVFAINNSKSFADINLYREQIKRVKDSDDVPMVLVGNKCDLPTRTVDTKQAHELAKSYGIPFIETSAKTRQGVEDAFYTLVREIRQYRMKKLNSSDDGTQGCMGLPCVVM

On to `CCC[C@H]1C(=O)N[C@@H]([C@@H](C)CC)C(=O)N(C)CC(=O)N(C)[C@H]2C/C=C\CCN(C2=O)[C@@H](Cc2ccc(C)cc2)C(=O)N(C)CC(=O)N[C@@H](CCc2ccc(C(F)(F)F)c(OC)c2)C(=O)N2CC3(CC3)C[C@H]2C(=O)NC2(CC(C)(C)C2)C(=O)N(C)[C@@H](CC(C)C)C(=O)N(C)[C@H](C(=O)N(C)C)CC(=O)N1C` [PP3013], for which the “HRAS/KRAS (ratio of KD value with respect to GDP-bound HRAS wild-type protein to KD value with respect to KRAS)” value in assay [1] is “B (a compound having 3 or more and less than 10 is denoted as B)”. The “NRAS/KRAS (ratio of KD value with respect to GDP-bound NRAS wild-type protein to KD value with respect to KRAS)” value in assay [2] is recorded as “AA (a compound having 20 or more is denoted as AA)”.

Regarding `CCC[C@H]1C(=O)N[C@@H](C2CCCCC2)C(=O)N(C)CC(=O)N(C)[C@H]2C/C=C\CCN(C2=O)[C@@H](Cc2ccc(C(F)(F)F)cc2)C(=O)N(C)CC(=O)N[C@@H](CCc2ccc(C(F)(F)F)c(Cl)c2)C(=O)N2C[C@H](OCC)C[C@H]2C(=O)NC2(CC(C)(C)C2)C(=O)N(C)[C@@H](CC(C)(C)C)C(=O)N(C)[C@H](C(=O)N(C)C)CC(=O)N1C` [PP3014], the “HRAS/KRAS (ratio of KD value with respect to GDP-bound HRAS wild-type protein to KD value with respect to KRAS)” value in assay [1] was “A (a compound having 10 or more and less than 20 is denoted as A)”. In addition, the “NRAS/KRAS (ratio of KD value with respect to GDP-bound NRAS wild-type protein to KD value with respect to KRAS)” value in assay [2] was “AA (a compound having 20 or more is denoted as AA)”.

`CCC[C@H]1C(=O)N[C@@H](C2CCCCC2)C(=O)N(C)CC(=O)N(C)[C@H]2C/C=C\CCN(C2=O)[C@@H](Cc2ccc(C(F)(F)F)cc2)C(=O)N(C)CC(=O)N[C@@H](CCc2ccc(C(F)(F)F)c(Cl)c2)C(=O)N2C[C@H](OCC)C[C@H]2C(=O)NC2(CC(C)(C)C2)C(=O)N(C)[C@@H]([C@@H](C)CC)C(=O)N(C)[C@H](C(=O)N(C)C)CC(=O)N1C` [PP3015]: the “HRAS/KRAS (ratio of KD value with respect to GDP-bound HRAS wild-type protein to KD value with respect to KRAS)” value in assay [1] was “A (a compound having 10 or more and less than 20 is denoted as A)”. Further, in assay [2], the “NRAS/KRAS (ratio of KD value with respect to GDP-bound NRAS wild-type protein to KD value with respect to KRAS)” value was “AA (a compound having 20 or more is denoted as AA)”.

For the compound `CCC[C@H]1C(=O)N[C@@H](C2CCCCC2)C(=O)N(C)CC(=O)N(C)[C@H]2C/C=C\CCN(C2=O)[C@@H](Cc2ccc(C(F)(F)F)cc2)C(=O)N(C)CC(=O)N[C@@H](CCc2ccc(C(F)(F)F)c(Cl)c2)C(=O)N2C[C@H](OCC)C[C@H]2C(=O)NC2(CC(C)(C)C2)C(=O)N(C)[C@@H](CC(C)C)C(=O)N(C)[C@H](C(=O)N(C)C)CC(=O)N1C` [PP3017], the “HRAS/KRAS (ratio of KD value with respect to GDP-bound HRAS wild-type protein to KD value with respect to KRAS)” value in assay [1] was “A (a compound having 10 or more and less than 20 is denoted as A)”. For the same compound, in assay [2], the “NRAS/KRAS (ratio of KD value with respect to GDP-bound NRAS wild-type protein to KD value with respect to KRAS)” value is given as “AA (a compound having 20 or more is denoted as AA)”.

Take `CCC[C@H]1C(=O)N[C@@H](C2CCCCC2)C(=O)N(C)CC(=O)N(C)[C@H]2C/C=C\CCN(C2=O)[C@@H](Cc2ccc(C)cc2)C(=O)N(C)CC(=O)N[C@@H](CCc2ccc(C(F)(F)F)c(Cl)c2)C(=O)N2C[C@H](OCC)C[C@H]2C(=O)NC2(CC(C)(C)C2)C(=O)N(C)[C@@H](CC(C)(C)C)C(=O)N(C)[C@H](C(=O)N(C)C)CC(=O)N1C` [PP3018]: in assay [1], the “HRAS/KRAS (ratio of KD value with respect to GDP-bound HRAS wild-type protein to KD value with respect to KRAS)” value is “B (a compound having 3 or more and less than 10 is denoted as B)”. Also, the “NRAS/KRAS (ratio of KD value with respect to GDP-bound NRAS wild-type protein to KD value with respect to KRAS)” value in assay [2] was “A (a compound having 10 or more and less than 20 is denoted as A)”.

For the compound `CCC[C@H]1C(=O)N[C@@H](C2CCCCC2)C(=O)N(C)CC(=O)N(C)[C@H]2C/C=C\CCN(C2=O)[C@@H](Cc2ccc(C)cc2)C(=O)N(C)CC(=O)N[C@@H](CCc2ccc(C(F)(F)F)c(Cl)c2)C(=O)N2C[C@H](OCC)C[C@H]2C(=O)NC2(CC(C)(C)C2)C(=O)N(C)[C@@H](CC(C)C)C(=O)N(C)[C@H](C(=O)N(C)C)CC(=O)N1C` [PP3021], the “HRAS/KRAS (ratio of KD value with respect to GDP-bound HRAS wild-type protein to KD value with respect to KRAS)” value in assay [1] is “A (a compound having 10 or more and less than 20 is denoted as A)”. The “NRAS/KRAS (ratio of KD value with respect to GDP-bound NRAS wild-type protein to KD value with respect to KRAS)” value in assay [2] is recorded as “AA (a compound having 20 or more is denoted as AA)”.

Regarding `CCC[C@H]1C(=O)N[C@@H](C2CCOCC2)C(=O)N(C)CC(=O)N(C)[C@H]2C/C=C\CCN(C2=O)[C@@H](Cc2ccc(C(F)(F)F)cc2)C(=O)N(C)CC(=O)N[C@@H](CCc2ccc(C(F)(F)F)c(Cl)c2)C(=O)N2C[C@H](OCC)C[C@H]2C(=O)NC2(CC(C)(C)C2)C(=O)N(C)[C@@H](CC(C)(C)C)C(=O)N(C)[C@H](C(=O)N(C)C)CC(=O)N1C` [PP3022], the “HRAS/KRAS (ratio of KD value with respect to GDP-bound HRAS wild-type protein to KD value with respect to KRAS)” value in assay [1] was “A (a compound having 10 or more and less than 20 is denoted as A)”. In addition, the “NRAS/KRAS (ratio of KD value with respect to GDP-bound NRAS wild-type protein to KD value with respect to KRAS)” value in assay [2] is reported as “AA (a compound having 20 or more is denoted as AA)”.

On to `CCC[C@H]1C(=O)N[C@@H](C2CCOCC2)C(=O)N(C)CC(=O)N(C)[C@H]2C/C=C\CCN(C2=O)[C@@H](Cc2ccc(C)cc2)C(=O)N(C)CC(=O)N[C@@H](CCc2ccc(C(F)(F)F)c(Cl)c2)C(=O)N2C[C@H](OCC)C[C@H]2C(=O)NC2(CC(C)(C)C2)C(=O)N(C)[C@@H](CC(C)(C)C)C(=O)N(C)[C@H](C(=O)N(C)C)CC(=O)N1C` [PP3026], for which the “HRAS/KRAS (ratio of KD value with respect to GDP-bound HRAS wild-type protein to KD value with respect to KRAS)” value in assay [1] is “A (a compound having 10 or more and less than 20 is denoted as A)”. Also, the “NRAS/KRAS (ratio of KD value with respect to GDP-bound NRAS wild-type protein to KD value with respect to KRAS)” value in assay [2] was “A (a compound having 10 or more and less than 20 is denoted as A)”.

As to `CCC[C@H]1C(=O)N[C@@H]([C@@H](C)CC)C(=O)N(C)CC(=O)N(C)[C@H]2C/C=C\CCN(C2=O)[C@@H](Cc2ccc(C(F)(F)F)cc2)C(=O)N(C)CC(=O)N[C@@H](CCc2ccc(Cl)c(Cl)c2)C(=O)N2CCCCC[C@H]2C(=O)NC2(CC(C)(C)C2)C(=O)N(C)[C@@H](C(CC)CC)C(=O)N(C)[C@H](C(=O)N(C)C)CC(=O)N1C` [PP3031], the “HRAS/KRAS (ratio of KD value with respect to GDP-bound HRAS wild-type protein to KD value with respect to KRAS)” value in assay [1] is “A (a compound having 10 or more and less than 20 is denoted as A)”. In addition, the “NRAS/KRAS (ratio of KD value with respect to GDP-bound NRAS wild-type protein to KD value with respect to KRAS)” value in assay [2] was “AA (a compound having 20 or more is denoted as AA)”.

With `CCO[C@@H]1C[C@H]2C(=O)NC3(CC(C)(C)C3)C(=O)N(C)[C@@H](C(CC)CC)C(=O)N(C)[C@H](C(=O)N(C)C)CC(=O)N(C)[C@H]3CCCCCCc4ccc(cc4)C[C@@H](C(=O)N(C)CC(=O)N[C@@H](CCc4ccc(C(F)(F)F)c(OC)c4)C(=O)N2C1)N1CC/C=C\C[C@@H](C1=O)N(C)C(=O)CN(C)C(=O)[C@H]([C@@H](C)CC)NC3=O` [PP3032], the “HRAS/KRAS (ratio of KD value with respect to GDP-bound HRAS wild-type protein to KD value with respect to KRAS)” value in assay [1] was “A (a compound having 10 or more and less than 20 is denoted as A)”. Besides, the “NRAS/KRAS (ratio of KD value with respect to GDP-bound NRAS wild-type protein to KD value with respect to KRAS)” value in assay [2] is recorded as “AA (a compound having 20 or more is denoted as AA)”.

Consider `CCO[C@@H]1C[C@H]2C(=O)NC3(CCC3)C(=O)N(C)[C@@H](C3CCCC3)C(=O)N(C)[C@H](C(=O)N3CCCCC3)CC(=O)N(C)[C@H]3CCCCCCc4ccc(cc4)C[C@@H](C(=O)N(C)CC(=O)N[C@@H](CCc4ccc(C(F)(F)F)c(OC)c4)C(=O)N2C1)N1CC/C=C\C[C@@H](C1=O)N(C)C(=O)CN(C)C(=O)[C@H]([C@@H](C)CC)NC3=O` [PP3033, (1S,7S,11R,13S,19S,22S,26S,29S,35S,37Z)-19-cyclopentyl-11-ethoxy-7-[2-[3-methoxy-4-(trifluoromethyl)phenyl]ethyl]-3,18,21,25,31,34-hexamethyl-29-[(1S)-1-methylpropyl]-22-(piperidine-1-carbonyl)spiro[3,6,9,15,18,21,25,28,31,34,41-undecazapentacyclo[24.15.11.2^43,46.1^35,41.0^9,13]pentapentaconta-37,43(54),44,46(53)-tetraene-16,1′-cyclobutane]-2,5,8,14,17,20,24,27,30,33,55-undecone], for which, in assay [1], the “HRAS/KRAS (ratio of KD value with respect to GDP-bound HRAS wild-type protein to KD value with respect to KRAS)” value was “B (a compound having 3 or more and less than 10 is denoted as B)”. In addition, in assay [2], the “NRAS/KRAS (ratio of KD value with respect to GDP-bound NRAS wild-type protein to KD value with respect to KRAS)” value was “A (a compound having 10 or more and less than 20 is denoted as A)”.

Consider `CCO[C@@H]1C[C@H]2C(=O)NC3(CC(C)(C)C3)C(=O)N(C)[C@@H](C3CCCC3)C(=O)N(C)[C@H](C(=O)N3CCCC3)CC(=O)N(C)[C@H]3CCCCCCc4ccc(cc4)C[C@@H](C(=O)N(C)CC(=O)N[C@@H](CCc4ccc(C(F)(F)F)c(OC)c4)C(=O)N2C1)N1CC/C=C\C[C@@H](C1=O)N(C)C(=O)CN(C)C(=O)[C@H]([C@@H](C)CC)NC3=O` [PP3034, (1S,7S,11R,13S,19S,22S,26S,29S,35S,37Z)-19-cyclopentyl-11-ethoxy-7-[2-[3-methoxy-4-(trifluoromethyl)phenyl]ethyl]-3,3′,3′,18,21,25,31,34-octamethyl-29-[(1S)-1-methylpropyl]-22-(pyrrolidine-1-carbonyl)spiro[3,6,9,15,18,21,25,28,31,34,41-undecazapentacyclo[24.15.11.2^43,46.1^35,41.0^9,13]pentapentaconta-37,43(54),44,46(53)-tetraene-16,1′-cyclobutane]-2,5,8,14,17,20,24,27,30,33,55-undecone], for which the “HRAS/KRAS (ratio of KD value with respect to GDP-bound HRAS wild-type protein to KD value with respect to KRAS)” value in assay [1] was “B (a compound having 3 or more and less than 10 is denoted as B)”. In addition, in assay [2], the “NRAS/KRAS (ratio of KD value with respect to GDP-bound NRAS wild-type protein to KD value with respect to KRAS)” value was “A (a compound having 10 or more and less than 20 is denoted as A)”.

Consider `CCO[C@@H]1C[C@H]2C(=O)NC3(CC(C)(C)C3)C(=O)N(C)[C@@H](C(CC)CC)C(=O)N(C)[C@H](C(=O)N(C)C)CC(=O)N(C)[C@H]3CCCCCc4ccc(cc4)C[C@@H](C(=O)N(C)CC(=O)N[C@@H](CCc4ccc(C(F)(F)F)c(OC)c4)C(=O)N2C1)N1CC/C=C\C[C@@H](C1=O)N(C)C(=O)CN(C)C(=O)[C@H]([C@@H](C)CC)NC3=O` [PP3035], for which, in assay [1], the “HRAS/KRAS (ratio of KD value with respect to GDP-bound HRAS wild-type protein to KD value with respect to KRAS)” value is “A (a compound having 10 or more and less than 20 is denoted as A)”. For the same compound, in assay [2], the “NRAS/KRAS (ratio of KD value with respect to GDP-bound NRAS wild-type protein to KD value with respect to KRAS)” value was “AA (a compound having 20 or more is denoted as AA)”.

Values taken from patent US20250230193A1, “CYCLIC COMPOUND HAVING SELECTIVE KRAS INHIBITORY EFFECT ON HRAS AND NRAS” (CHUGAI SEIYAKU KABUSHIKI KAISHA, priority 2022, published 2025).
